Measurements published in article PMC6079014, “Calcium is an essential cofactor for metal efflux by the ferroportin transporter family” (Nature Communications, 2018).
Where “and” joins values, the source holds several entries; their conditions need not be identical. Identical values can stand only once.

Experiments:
mouse Fpn (Fpn-C2) = target: T1, mouse Fpn (Fpn-C2) (Mus musculus, UniProt Q9JHI9, DEL251-290/DEL401-449); experiment: Isothermal titration calorimetry, thermostabilized mouse Fpn construct Fpn-C2; type: binding
T1 construct: generated from full-length mouse Fpn (UniProt: Q9JHI9); GFP (C); made in house; host or cells: Sf9 insect cells (baculovirus)
T1 sequence (Q9JHI9 with tags, fused parts or gaps DEL251-290/DEL401-449): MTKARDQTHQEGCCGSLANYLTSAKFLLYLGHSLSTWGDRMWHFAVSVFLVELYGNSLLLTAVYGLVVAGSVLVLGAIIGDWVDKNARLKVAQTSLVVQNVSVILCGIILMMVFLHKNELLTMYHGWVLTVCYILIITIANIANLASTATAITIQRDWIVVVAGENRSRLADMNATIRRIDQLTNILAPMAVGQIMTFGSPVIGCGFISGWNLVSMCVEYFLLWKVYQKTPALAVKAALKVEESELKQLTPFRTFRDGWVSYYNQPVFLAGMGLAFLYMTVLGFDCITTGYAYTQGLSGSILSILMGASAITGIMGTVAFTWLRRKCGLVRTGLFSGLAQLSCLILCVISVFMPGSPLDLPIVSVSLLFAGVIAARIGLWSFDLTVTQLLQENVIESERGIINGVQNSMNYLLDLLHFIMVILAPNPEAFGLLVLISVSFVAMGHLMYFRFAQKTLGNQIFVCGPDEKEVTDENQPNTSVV
Text: To obtain a purified mammalian Fpn protein conducive for biophysical studies, we generated a protein construct with an increased thermal stability (Deshpande et al., 2018). In brief, the construct (Fpn-C2) was generated from full-length mouse Fpn (UniProt: Q9JHI9 [https://www.uniprot.org/uniprot/Q9JHI9]) by deleting two-loop regions (residues 251–290 and 401–449), followed by an overlapping PCR incorporating the E219A mutation to generate Fpn-C2-E219A. The genes were subsequently cloned with a C-terminal GFP fusion into a baculovirus transfer vector (pFastBac1; Thermo Fisher Scientific) and the proteins were expressed using the Bac-to-Bac Baculovirus and Sf9 cells (Thermo Fisher Scientific) expression method according to the manufacturer’s protocol (Thermo Fisher Scientific). For large scale expression of the protein, 6L Sf9 cells (2 × 10^6 cells/ml) were infected with virus at an optimal multiplicity of infection (MOI) of 2.5 in Insect-XPRESS™ Protein-free Insect Cell Medium with L-glutamine (Lonza) and incubated at 27 °C with shaking at 130 rpm. The cells were spun down 48 h post-infection at 1500 × g for 10 min and the pellet stored at −20 °C until further use.
For Fpn-C2 and Fpn-C2-E219A purification (Deshpande et al., 2018), Sf9 cells were thawed at room temperature with the addition of 2 μl Benzonase (250 units/μL, Sigma-Aldrich), 1 mM MgSO4, 0.2 mM PMSF, and lysed by a single pass through cooled EmulsiFlex-C3 homogenizer (Avestin). All subsequent steps were performed at 4 °C. Membranes were harvested by centrifugation at 106,000 × g for 1 h, and pellets resuspended in Buffer A. The protein was subsequently purified as BbFpn, but with the addition of a second wash on the Ni-NTA column with three column volumes of 25 mM imidazole pH 8, 300 mM NaCl, and 0.03% DDM, and with 0.03% DDM instead of LMNG in the elution and SEC purification. The SEC eluted protein was concentrated to ~10 mg/ml as determined by the BCA assay (Thermo Fisher Scientific) method and stored at −80 °C until further use.
Protein samples were purified as above and diluted to 0.03 mM (1.5 mg/ml) for ITC experiments. The buffer used for ITC was 20 mM Tris pH 8, 50 mM NaCl, and 0.004% LMNG. The buffer was degassed in vacuum (2 h) and pretreated with Chelex-100 (Bio-Rad) to remove residual calcium and/or metal ions bound with moderate affinity. This was done by first washing the Chelex-100 beads with water and then running the dialysis buffer through the beads in a gravity flow column. The samples were subsequently dialyzed overnight against their respective gel filtration buffers. ITC measurements were obtained by using a MicroCal iTC 200 calorimeter (GE Healthcare) and MicroCal PEAQ-ITC (Malvern Instruments) at 20 °C. For calcium and strontium binding measurements, a 2 mM solution was prepared in the protein buffer using a standard 1 M stock solution. […]. For MgCl2 and KCl measurements, a 2–5 mM solution was prepared in the respective buffer.
In each experiment, the protein solution was loaded into the sample cell, and the ligand solution was loaded in the syringe. […] To obtain the effective heat of binding, the heat of dilution, measured by injecting the ligand solution alone into buffer, was subtracted prior to data analysis. The data were fitted using the ‘one binding site’ model using the MicroCal PEAQ-ITC Analysis Software (Malvern Instruments), and the apparent molar reaction […] (ΔH°), entropy (ΔS°), dissociation constant (Kd), and stoichiometry of binding (N) were determined. […]

BbFpn D24A = BbFpn D24A (Bdellovibrio bacteriovorus, UniProt Q6MLJ0, D24A); experiment: Isothermal titration calorimetry, D24A BbFpn; type: binding, Bdellovibrio bacteriovorous
Chain of BbFpn D24A (Q6MLJ0 whole entry D24A): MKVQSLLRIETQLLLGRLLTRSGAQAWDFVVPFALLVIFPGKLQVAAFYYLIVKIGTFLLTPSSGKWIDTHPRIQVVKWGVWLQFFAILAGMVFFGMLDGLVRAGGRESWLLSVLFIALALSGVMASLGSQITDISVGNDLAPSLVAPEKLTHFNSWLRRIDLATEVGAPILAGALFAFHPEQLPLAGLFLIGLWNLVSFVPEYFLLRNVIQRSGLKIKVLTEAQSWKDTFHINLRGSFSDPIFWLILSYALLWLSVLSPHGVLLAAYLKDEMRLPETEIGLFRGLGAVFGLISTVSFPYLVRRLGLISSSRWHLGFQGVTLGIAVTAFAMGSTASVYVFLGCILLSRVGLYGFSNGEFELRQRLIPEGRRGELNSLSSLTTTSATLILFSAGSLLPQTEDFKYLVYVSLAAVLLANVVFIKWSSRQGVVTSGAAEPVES

[1] = Supplementary Fig. 7a, one experiment

[Ca+2] [Ca^2+, calcium]
-TΔS, ITC (mouse Fpn (Fpn-C2); [1]): -9.95 kcal/mol | N (sites), ITC (mouse Fpn (Fpn-C2); [1]): 0.804 ± 4.8e-2 | ΔG, ITC (mouse Fpn (Fpn-C2); [1]): -7.47 kcal/mol | ΔH, ITC (mouse Fpn (Fpn-C2); [1]): 2.49 ± 0.210 kcal/mol | Kd (mouse Fpn (Fpn-C2); thermostabilized mouse Fpn-C2, read-out: Kd (ITC)): ~3000 nM and 2700 nM | Binding to D24A BbFpn by ITC (in words) (BbFpn D24A): complete loss
